Experimental data: ChEMBL document CHEMBL5696443 (Clin Cancer Res, 2016)
The source made the active and inactive calls. The rule behind the calls is not given here.

Key:
[1] = molecular target: CDK9/Cyclin K (Homo sapiens) (UniProt P50750+O75909); experiment: Inhibition of human CDK9/CyclinK at 1 uM using KTFCGTPEYLAPEVRREPRILSEEEQEMFRDFDYIADWC as substrate in presence of [gamma33P]-ATP by HotSpot assay relative to control; type: protein-complex assay
[2] = molecular target: Calcium/calmodulin-dependent protein kinase type II subunit gamma (Homo sapiens, UniProt Q13555); experiment: Inhibition of human CAMK2G using KKLNRTLSFAEPG as substrate in presence of [gamma33P]-ATP by HotSpot assay
[3] = molecular target: Ribosomal protein S6 kinase alpha-3 (Homo sapiens, UniProt P51812); experiment: Inhibition of human RPS6kA3 using KKLNRTLSVA as substrate in presence of [gamma33P]-ATP by HotSpot assay
[4] = molecular target: Serine/threonine-protein kinase 10 (Homo sapiens, UniProt O94804); experiment: Inhibition of human STK10 using RLGRDKYKTLRQIRQ as substrate in presence of [gamma33P]-ATP by HotSpot assay
[5] = molecular target: Serine/threonine-protein kinase D1 (Homo sapiens, UniProt Q15139); experiment: Inhibition of human PRKD1 using KKLNRTLSVA as substrate in presence of [gamma33P]-ATP by HotSpot assay
Angiopoietin-1 receptor = Angiopoietin-1 receptor (Homo sapiens, UniProt Q02763); experiment: Inhibition of human TEK using poly (Glu, Tyr)4:1 as substrate in presence of [gamma33P]-ATP by HotSpot assay
[6] = molecular target: G protein-coupled receptor kinase 3 (Homo sapiens) (UniProt P35626); experiment: Inhibition of human ADRBK2 at 1 uM using casein as substrate in presence of [gamma33P]-ATP by HotSpot assay relative to control
[7] = molecular target: RAC-alpha serine/threonine-protein kinase (Homo sapiens) (UniProt P31749); experiment: Inhibition of human AKT1 at 1 uM using KGSGSGRPRTSSFAEG as substrate in presence of [gamma33P]-ATP by HotSpot assay relative to control
Homo sapiens [8] = species: Homo sapiens; experiment: Inhibition of human BRAF V600E at 1 uM using MEK1 as substrate in presence of [gamma33P]-ATP by HotSpot assay relative to control
[9] = molecular target: Cyclin-dependent kinase 2/cyclin E1 (Homo sapiens) (UniProt P24864+P24941); experiment: Inhibition of human CDK2/CyclinE at 1 uM using RB protein as substrate in presence of [gamma33P]-ATP by HotSpot assay relative to control; type: protein-complex assay
[10] = molecular target: Ephrin type-A receptor 4 (Homo sapiens) (UniProt P54764); experiment: Inhibition of human EPHA4 at 1 uM using poly (Glu, Tyr)4:1 as substrate in presence of [gamma33P]-ATP by HotSpot assay relative to control
[11] = molecular target: Glycogen synthase kinase-3 beta (Homo sapiens) (UniProt P49841); experiment: Inhibition of human GSK3beta at 1 uM using YRRAAVPPSPSLSRHSSPHQ(pS)EDEEE as substrate in presence of [gamma33P]-ATP by HotSpot assay relative to control
[12] = molecular target: Mitogen-activated protein kinase kinase kinase 14 (Homo sapiens) (UniProt Q99558); experiment: Inhibition of human MAP3K14 at 1 uM using MBP as substrate in presence of [gamma33P]-ATP by HotSpot assay relative to control
[13] = molecular target: Myosin light chain kinase 2, skeletal/cardiac muscle (Homo sapiens) (UniProt Q9H1R3); experiment: Inhibition of human MYLK2 at 1 uM using KKLNRTLSFAEPG as substrate in presence of [gamma33P]-ATP by HotSpot assay relative to control
[14] = molecular target: Serine/threonine-protein kinase Nek7 (Homo sapiens) (UniProt Q8TDX7); experiment: Inhibition of human NEK7 at 1 uM using casein as substrate in presence of [gamma33P]-ATP by HotSpot assay relative to control
[15] = molecular target: Platelet-derived growth factor receptor beta (Homo sapiens) (UniProt P09619); experiment: Inhibition of human PDGFRbeta at 1 uM using poly (Glu, Tyr)4:1 as substrate in presence of [gamma33P]-ATP by HotSpot assay relative to control
[16] = molecular target: Serine/threonine-protein kinase pim-1 (Homo sapiens) (UniProt P11309); experiment: Inhibition of human PIM1 at 1 uM using RSRHSSYPAGT as substrate in presence of [gamma33P]-ATP by HotSpot assay relative to control
Homo sapiens [17] = species: Homo sapiens; experiment: Inhibition of human PKA at 1 uM using LCGRTGRRNSI as substrate in presence of [gamma33P]-ATP by HotSpot assay relative to control
[18] = molecular target: Serine/threonine-protein kinase PLK2 (Homo sapiens) (UniProt Q9NYY3); experiment: Inhibition of human PLK2 at 1 uM using casein as substrate in presence of [gamma33P]-ATP by HotSpot assay relative to control
[19] = molecular target: Protein kinase C alpha type (Homo sapiens) (UniProt P17252); experiment: Inhibition of human PRKCA at 1 uM using ERMRPRKRQGSVRRRV as substrate in presence of [gamma33P]-ATP by HotSpot assay relative to control
[20] = molecular target: TGF-beta receptor type-2 (Homo sapiens) (UniProt P37173); experiment: Inhibition of human TGFBR2 at 1 uM using MBP as substrate in presence of [gamma33P]-ATP by HotSpot assay relative to control
[21] = molecular target: Dual specificity protein kinase TTK (Homo sapiens) (UniProt P33981); experiment: Inhibition of human TTK at 1 uM using MBP as substrate in presence of [gamma33P]-ATP by HotSpot assay relative to control
[22] = molecular target: Tyrosine-protein kinase TXK (Homo sapiens) (UniProt P42681); experiment: Inhibition of human TXK at 1 uM using EAIYAAPFAKKK as substrate in presence of [gamma33P]-ATP by HotSpot assay relative to control
Insulin receptor = Insulin receptor (Homo sapiens, UniProt P06213)
Description: Inhibition of INSR phosphorylation in insulin-stimulated human H4-II-E cells preincubated with compound for 30 mins followed by insulin stimulation and measured after 10 mins by immunoblot analysis

DEL = settings: time 72 hrs
[23] = test system: EML4-ALK (Homo sapiens), Q9UM73+Q9HC35 [L1196M]; settings: BaF3, time 3-5 weeks
[24] = test system: EML4-ALK (Homo sapiens), Q9UM73+Q9HC35 [E1210K]; settings: BaF3, dose 500.0 nmol/L, time 3-5 weeks
[25] = test system: EML4-ALK (Homo sapiens), Q9UM73+Q9HC35 [F1174V]; settings: BaF3, dose 500.0 nmol/L, time 3-5 weeks
[26] = test system: EML4-ALK (Homo sapiens), Q9UM73+Q9HC35 [D1203N]; settings: BaF3, dose 500.0 nmol/L, time 3-5 weeks
cells = settings: Homo sapiens, BaF3, 72 h

Chain of TGF-beta receptor type-2 (Homo sapiens) (P37173 whole entry): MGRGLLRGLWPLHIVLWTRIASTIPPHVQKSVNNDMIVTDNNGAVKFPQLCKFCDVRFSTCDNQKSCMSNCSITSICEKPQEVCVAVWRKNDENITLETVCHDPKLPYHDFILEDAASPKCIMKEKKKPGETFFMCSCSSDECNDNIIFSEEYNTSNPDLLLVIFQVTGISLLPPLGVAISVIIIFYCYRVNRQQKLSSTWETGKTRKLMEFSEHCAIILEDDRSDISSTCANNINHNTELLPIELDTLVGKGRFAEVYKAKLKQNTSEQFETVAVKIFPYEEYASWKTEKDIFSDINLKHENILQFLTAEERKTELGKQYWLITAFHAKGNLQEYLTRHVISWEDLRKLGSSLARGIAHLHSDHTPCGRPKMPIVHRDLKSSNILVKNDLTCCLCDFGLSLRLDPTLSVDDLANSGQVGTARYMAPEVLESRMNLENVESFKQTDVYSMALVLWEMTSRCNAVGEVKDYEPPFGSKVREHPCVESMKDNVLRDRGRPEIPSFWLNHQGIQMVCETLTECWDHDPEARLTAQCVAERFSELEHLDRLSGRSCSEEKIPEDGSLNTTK
Chain of Angiopoietin-1 receptor (Q02763 whole entry): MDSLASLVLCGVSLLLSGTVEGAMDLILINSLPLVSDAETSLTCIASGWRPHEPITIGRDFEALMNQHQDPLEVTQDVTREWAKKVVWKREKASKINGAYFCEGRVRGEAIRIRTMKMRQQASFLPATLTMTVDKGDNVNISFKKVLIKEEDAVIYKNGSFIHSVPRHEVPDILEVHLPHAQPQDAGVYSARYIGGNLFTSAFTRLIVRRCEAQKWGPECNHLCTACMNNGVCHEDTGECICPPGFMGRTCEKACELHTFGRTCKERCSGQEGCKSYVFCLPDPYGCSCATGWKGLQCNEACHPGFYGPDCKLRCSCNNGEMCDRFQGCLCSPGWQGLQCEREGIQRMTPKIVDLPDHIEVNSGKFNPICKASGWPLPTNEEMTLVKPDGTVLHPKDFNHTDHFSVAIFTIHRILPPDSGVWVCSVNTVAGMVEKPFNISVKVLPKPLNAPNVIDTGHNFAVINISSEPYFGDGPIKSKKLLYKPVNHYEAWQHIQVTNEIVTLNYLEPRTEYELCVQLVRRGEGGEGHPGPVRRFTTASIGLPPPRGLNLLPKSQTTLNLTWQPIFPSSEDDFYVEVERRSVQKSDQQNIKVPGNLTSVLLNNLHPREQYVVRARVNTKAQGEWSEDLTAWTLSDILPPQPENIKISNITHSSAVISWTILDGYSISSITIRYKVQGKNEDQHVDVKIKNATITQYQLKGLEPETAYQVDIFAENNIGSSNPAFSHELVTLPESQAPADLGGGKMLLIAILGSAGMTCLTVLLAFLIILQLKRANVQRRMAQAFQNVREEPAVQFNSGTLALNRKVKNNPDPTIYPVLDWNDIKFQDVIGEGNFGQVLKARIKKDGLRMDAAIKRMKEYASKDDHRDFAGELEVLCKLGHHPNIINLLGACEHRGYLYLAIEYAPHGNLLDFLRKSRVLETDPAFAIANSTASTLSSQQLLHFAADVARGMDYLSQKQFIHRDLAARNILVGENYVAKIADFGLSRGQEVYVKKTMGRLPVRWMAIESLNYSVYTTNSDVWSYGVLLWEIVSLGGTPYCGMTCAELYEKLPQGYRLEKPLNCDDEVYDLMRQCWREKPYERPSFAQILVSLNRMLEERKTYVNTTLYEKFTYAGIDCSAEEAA
Chain of Calcium/calmodulin-dependent protein kinase type II subunit gamma (Q13555 whole entry): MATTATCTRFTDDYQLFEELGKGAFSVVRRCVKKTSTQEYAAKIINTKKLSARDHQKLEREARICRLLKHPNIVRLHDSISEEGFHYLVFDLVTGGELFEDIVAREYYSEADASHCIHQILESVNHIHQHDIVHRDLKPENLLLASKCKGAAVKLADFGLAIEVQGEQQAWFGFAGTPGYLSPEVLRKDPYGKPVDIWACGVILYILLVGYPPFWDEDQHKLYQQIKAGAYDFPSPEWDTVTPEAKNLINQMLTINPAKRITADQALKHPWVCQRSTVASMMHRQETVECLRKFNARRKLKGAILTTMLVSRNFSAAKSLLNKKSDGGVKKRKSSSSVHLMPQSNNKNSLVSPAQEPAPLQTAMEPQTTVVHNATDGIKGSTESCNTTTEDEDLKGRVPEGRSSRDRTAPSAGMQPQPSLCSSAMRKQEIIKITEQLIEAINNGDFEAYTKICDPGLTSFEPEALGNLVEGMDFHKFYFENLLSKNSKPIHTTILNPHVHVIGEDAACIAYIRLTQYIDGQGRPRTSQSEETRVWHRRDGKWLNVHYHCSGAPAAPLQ
Chain of Serine/threonine-protein kinase 10 (O94804 whole entry): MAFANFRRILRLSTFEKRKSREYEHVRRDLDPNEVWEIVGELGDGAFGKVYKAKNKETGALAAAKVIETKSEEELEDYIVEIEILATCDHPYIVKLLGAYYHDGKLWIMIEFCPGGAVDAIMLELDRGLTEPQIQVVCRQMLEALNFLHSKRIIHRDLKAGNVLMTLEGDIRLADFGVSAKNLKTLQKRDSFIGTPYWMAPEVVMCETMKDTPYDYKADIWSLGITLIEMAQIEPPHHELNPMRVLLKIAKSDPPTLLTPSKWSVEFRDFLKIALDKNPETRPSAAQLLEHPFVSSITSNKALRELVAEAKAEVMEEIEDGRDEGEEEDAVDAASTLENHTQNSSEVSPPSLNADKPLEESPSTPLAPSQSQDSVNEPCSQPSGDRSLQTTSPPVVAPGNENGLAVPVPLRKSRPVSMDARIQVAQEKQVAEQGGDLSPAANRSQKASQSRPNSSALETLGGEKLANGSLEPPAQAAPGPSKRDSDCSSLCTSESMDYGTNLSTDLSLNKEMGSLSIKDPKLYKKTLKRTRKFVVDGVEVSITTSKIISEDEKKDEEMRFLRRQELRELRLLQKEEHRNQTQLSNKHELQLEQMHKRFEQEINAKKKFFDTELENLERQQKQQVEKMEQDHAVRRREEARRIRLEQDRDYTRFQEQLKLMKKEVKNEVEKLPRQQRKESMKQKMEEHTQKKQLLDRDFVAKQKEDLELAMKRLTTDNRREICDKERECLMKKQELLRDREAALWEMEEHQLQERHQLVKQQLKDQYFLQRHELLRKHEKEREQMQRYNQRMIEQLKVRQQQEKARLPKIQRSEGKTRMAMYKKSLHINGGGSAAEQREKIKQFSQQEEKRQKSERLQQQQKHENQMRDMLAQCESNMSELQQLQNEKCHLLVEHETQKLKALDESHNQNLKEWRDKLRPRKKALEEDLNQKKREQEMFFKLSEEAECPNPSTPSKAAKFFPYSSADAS
Chain of RAC-alpha serine/threonine-protein kinase (Homo sapiens) (P31749 whole entry): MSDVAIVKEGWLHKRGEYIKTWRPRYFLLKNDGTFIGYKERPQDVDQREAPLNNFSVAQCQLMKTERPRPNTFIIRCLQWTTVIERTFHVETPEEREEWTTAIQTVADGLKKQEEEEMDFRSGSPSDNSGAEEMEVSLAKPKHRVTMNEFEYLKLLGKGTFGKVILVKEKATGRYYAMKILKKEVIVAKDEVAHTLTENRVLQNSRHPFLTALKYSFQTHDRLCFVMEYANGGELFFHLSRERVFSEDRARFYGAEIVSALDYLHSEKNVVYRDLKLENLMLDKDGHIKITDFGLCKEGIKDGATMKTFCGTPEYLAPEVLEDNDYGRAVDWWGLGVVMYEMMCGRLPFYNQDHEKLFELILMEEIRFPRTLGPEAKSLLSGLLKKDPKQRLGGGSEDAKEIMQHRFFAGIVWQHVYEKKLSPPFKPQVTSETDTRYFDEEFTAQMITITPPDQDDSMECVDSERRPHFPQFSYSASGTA
Chain of Myosin light chain kinase 2, skeletal/cardiac muscle (Homo sapiens) (Q9H1R3 whole entry): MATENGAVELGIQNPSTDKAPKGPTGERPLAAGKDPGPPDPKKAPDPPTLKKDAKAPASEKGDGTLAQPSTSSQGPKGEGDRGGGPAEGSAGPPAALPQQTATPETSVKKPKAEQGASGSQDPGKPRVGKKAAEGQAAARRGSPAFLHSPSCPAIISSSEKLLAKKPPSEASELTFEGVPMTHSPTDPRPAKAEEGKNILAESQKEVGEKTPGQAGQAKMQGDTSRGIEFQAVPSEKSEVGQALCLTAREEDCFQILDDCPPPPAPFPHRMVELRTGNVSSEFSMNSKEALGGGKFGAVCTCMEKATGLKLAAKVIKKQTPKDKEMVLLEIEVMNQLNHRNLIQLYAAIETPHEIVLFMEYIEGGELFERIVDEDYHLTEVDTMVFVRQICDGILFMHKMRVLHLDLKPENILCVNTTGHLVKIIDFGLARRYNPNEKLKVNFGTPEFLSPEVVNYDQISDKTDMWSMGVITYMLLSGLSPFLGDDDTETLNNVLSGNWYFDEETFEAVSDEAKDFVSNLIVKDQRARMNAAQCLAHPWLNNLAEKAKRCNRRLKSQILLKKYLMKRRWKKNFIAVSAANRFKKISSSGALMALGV
Chain of Serine/threonine-protein kinase pim-1 (Homo sapiens) (P11309 whole entry, looked up): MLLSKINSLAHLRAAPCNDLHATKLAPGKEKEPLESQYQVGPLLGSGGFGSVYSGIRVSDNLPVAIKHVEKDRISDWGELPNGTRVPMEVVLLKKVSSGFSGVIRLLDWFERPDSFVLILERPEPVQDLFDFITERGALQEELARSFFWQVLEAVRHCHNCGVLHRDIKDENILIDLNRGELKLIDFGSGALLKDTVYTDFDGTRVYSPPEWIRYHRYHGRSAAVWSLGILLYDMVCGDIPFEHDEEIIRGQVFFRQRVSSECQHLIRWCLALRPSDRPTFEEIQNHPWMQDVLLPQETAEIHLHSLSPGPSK
Chain of Glycogen synthase kinase-3 beta (Homo sapiens) (P49841 whole entry, looked up): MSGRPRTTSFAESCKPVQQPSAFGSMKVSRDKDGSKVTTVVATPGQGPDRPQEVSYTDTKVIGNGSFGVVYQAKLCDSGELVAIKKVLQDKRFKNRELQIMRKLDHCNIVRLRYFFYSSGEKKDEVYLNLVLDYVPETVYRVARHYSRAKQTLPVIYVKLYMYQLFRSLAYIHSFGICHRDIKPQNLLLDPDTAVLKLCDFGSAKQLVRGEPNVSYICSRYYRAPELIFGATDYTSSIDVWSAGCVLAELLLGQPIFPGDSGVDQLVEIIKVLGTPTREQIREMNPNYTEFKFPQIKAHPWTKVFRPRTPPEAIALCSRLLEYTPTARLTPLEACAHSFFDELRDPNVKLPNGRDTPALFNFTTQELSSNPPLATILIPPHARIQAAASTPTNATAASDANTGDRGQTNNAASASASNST

COc1cc(N2CCC(N3CCN(C)CC3)CC2)ccc1Nc1ncc(Cl)c(Nc2ccccc2P(C)(C)=O)n1 [BRIGATINIB]
inhibition [1]: < 90%
IC50 [2]: 0.048 µM
IC50 [3]: 0.026 µM
IC50 [4]: 0.123 µM
IC50 [5]: 0.197 µM
IC50 (Angiopoietin-1 receptor): > 1 µM
inhibition [6]: < 90%
inhibition [7]: < 90%
inhibition (Homo sapiens [8]): < 90%
inhibition [9]: < 90%
inhibition [10]: < 90%
inhibition [11]: < 90%
inhibition [12]: < 90%
inhibition [13]: < 90%
inhibition [14]: < 90%
inhibition [15]: < 90%
inhibition [16]: < 90%
inhibition (Homo sapiens [17]): < 90%
inhibition [18]: < 90%
inhibition [19]: < 90%
inhibition [20]: < 90%
inhibition [21]: < 90%
inhibition [22]: < 90%
IC50 (Insulin receptor): 9.33 µM
GI50 (DEL): 0.031 µM
IC90 [23]: 0.118 µM
inhibition [24]: Active
inhibition [25]: Active
inhibition [26]: Active
IC50 (cells): 0.017 µM
